Source: patent US8314120B2, “Small molecule potentiators of metabotropic glutamate receptors” (Abbott GmbH & Co. KG, priority 2010, dated 2012)
Counter-ions that a name gives are not always drawn.

Biological target: T1, mGlu2 (Homo sapiens, UniProt Q14416)
Assay: not given
Conditions: agonist; cited from earlier work

T1 sequence (Q14416 19-872): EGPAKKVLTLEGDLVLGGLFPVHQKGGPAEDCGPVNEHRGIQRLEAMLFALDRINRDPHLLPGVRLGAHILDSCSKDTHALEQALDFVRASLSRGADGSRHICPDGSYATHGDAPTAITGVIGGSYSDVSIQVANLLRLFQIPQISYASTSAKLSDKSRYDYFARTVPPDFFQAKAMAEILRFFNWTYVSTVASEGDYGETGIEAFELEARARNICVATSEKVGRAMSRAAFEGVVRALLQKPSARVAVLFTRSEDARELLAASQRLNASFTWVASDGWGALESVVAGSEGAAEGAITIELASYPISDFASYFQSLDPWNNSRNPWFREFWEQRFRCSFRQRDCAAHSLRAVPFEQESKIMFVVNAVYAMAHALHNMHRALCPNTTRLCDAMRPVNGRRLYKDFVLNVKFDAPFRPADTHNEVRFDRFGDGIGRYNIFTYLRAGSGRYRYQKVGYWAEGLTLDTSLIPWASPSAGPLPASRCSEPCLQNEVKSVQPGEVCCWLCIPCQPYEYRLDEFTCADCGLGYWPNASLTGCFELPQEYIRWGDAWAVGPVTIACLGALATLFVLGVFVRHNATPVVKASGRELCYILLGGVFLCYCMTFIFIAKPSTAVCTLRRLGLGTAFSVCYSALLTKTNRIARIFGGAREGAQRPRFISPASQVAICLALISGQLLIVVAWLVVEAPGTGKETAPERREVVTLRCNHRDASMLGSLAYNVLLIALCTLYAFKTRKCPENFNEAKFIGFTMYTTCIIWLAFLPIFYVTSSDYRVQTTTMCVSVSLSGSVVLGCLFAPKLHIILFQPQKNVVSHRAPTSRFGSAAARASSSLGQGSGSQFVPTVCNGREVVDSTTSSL

SMILES	EC50 [nM]
N[C@@]1(C(=O)O)CO[C@H]2[C@H](C(=O)O)[C@H]21 [LY379268]	3

Biological target: T1, mGlu2
Assay: FLIPR intracellular Ca2+ assay, potentiation of glutamate at mGlu2 receptor in HEK293 cell clone
Type: cell-based
Design: V5/His (named in the vector only); expressed in transfected cells; host or cells: HEK293
Conditions: potentiation of 1 μM glutamate, HEK293 cells expressing human mGlu2, rGLAST and Galpha16
Procedure: For the purpose of the present study, a cell line permanently expressing the human mGlu2 receptor, the rat glutamate transporter rGLAST and the alpha subunit of G16 was generated by transfection. Briefly, HEK293 cells were seeded in petri dishes (diameter 15 cm) at a density of 2×10^6 cells in DMEM with glutamax (Invitrogen, GIBCO #21885-025), 10% dialyzed Fetal Calf Serum (Invitrogen, Gibco #26400-044), and incubated at 37° C. over night. The following day cells were transfected with Lipofectamine (Invitrogen, Gibco #18324-012) as recommended by the manufacturer, using linearized pcDNA3.1 (V5/His)-hmGlu2 receptor (ScaI) and pcDNA3.1 Zeo-Ga16 IRES rGLAST (SspI). After transfection the cells were selected in DMEM Glutamax Medium (Invitrogen, GIBCO #21885-025), containing 10% dialyzed fetal calf serum (FCS; (Invitrogen, Gibco #26400-044), antibiotic/antimycotic, 800 μg/ml Geneticin (G418) and 250 μg/ml Zeozin. Single clones were isolated manually and further subcloned by serial dilution.
The function of the mGlu2 receptor was determined by evaluating intracellular Ca^2+ concentrations under standard conditions in a fluorometric imaging plate reader (FLIPR, Molecular Devices, Union City, Calif. 94587, USA) by measuring the response of the cells to a test compound. The FLIPR assay is a common functional assay to monitor native or recombinant Galphaq-coupled receptors, and native or recombinant receptors normally linked to other G-protein signalling cascades, which are coupled to calcium through co-expression of an alpha subunit of a promiscuous or chimeric G-protein. In the assay the increase of intracellular calcium is measured through a calcium-dependent fluorescent dye (e.g. Fluo-4 AM) in the FLIPR instrument.
For selection of a suitable cell clone and also the subsequent measurements of the selected clone, 4×10^4 cells/well were plated on poly-D-lysine coated Biocoat-plates multiwell 96 in DMEM Glutamax (GIBCO #21885-025)/10% dialyzed FCS over night. The following day, the medium was aspirated and exchanged for glutamate-free DMEM (Gibco #21969-035), without FCS or glutamine, containing 50 μg/ml gentamycin (Gibco #15750). Cells were again incubated over night. Before the measurement, cells were loaded with 2 μM Fluo-4 AM (Molecular Probes, F14201; stock solution 1 mM in DMSO) and 0.02% Pluronic F127 (Molecular Probes, P3000; stock solution 10% in DMSO) in DMEM medium (Gibco #21969-035) for 45 minutes at 37° C. in a final volume of 100 μl per well. Finally, the plates were washed in a BioTec cell washer with HBSS, containing 20 mM HEPES. The end-volume in each well was 100 μl. The plates were subsequently measured in a fluorometric imaging plate reader (FLIPR, Molecular Devices, Union City, Calif. 94587, USA).
The compounds of the present invention were tested in the above-described FLIPR assay using the selected cell clone. Increased intracellular calcium levels were quantified following addition of test compound (agonism), as well as following addition of a submaximal concentration of 1 micromolar (1 μM) glutamate (potentiation).
For the determination of the effect of the test compound by itself (agonism) or by increasing the response to a submaximal concentration (e.g. 1 μM) of glutamate (potentiation), the resulting signal is determined by subtraction of the background fluorescence from the maximal fluorescent peak height of the respective response. In the FLIPR instrument the compound is given to the cell and its fluorescence response quantified by the FLIPR instrument (agonism). The concentration at which the compound exerts half its maximal effect is named the ‘effective concentration 50’ or ‘EC50’. The maximal effect induced by the test substance is normalized to the maximal effect exerted by 100 μM glutamate (set at 100%).
Ten minutes after addition of the test compound to the plate, 1 μM glutamate is added. A potentiator enhances the response of the receptor to glutamate. […]

SMILES	EC50 [nM]
CCCCN1CCc2c(Oc3cncc(-c4ccccc4)c3)cccc2C1=O [Example 13, 2-butyl-5-[(5-phenylpyridin-3-yl)oxy]-3,4-dihydroisoquinolin-1(2H)-one trifluoroacetate]	< 500
CCCCN1Cc2cc(Cc3cncc(-c4ccccc4)c3)ccc2C1=O [Example 23, 2-butyl-5-[(5-phenylpyridin-3-yl)methyl]-2,3-dihydro-1H-isoindol-1-one]	500 to 2000
CCCCN1Cc2cc(Nc3cc(N4CCNCC4)cnc3Cl)ccc2C1=O [Example 6, 2-butyl-5-{[2-chloro-5-(piperazin-1-yl)pyridin-3-yl]amino}-2,3-dihydro-1H-isoindol-1-one]	2000 to 10000
CCCCN1CCc2c(Oc3cc(N4CCN(C)CC4)cnc3Cl)cccc2C1=O [Example 22, 2-butyl-5-{[2-chloro-5-(4-methylpiperazin-1-yl)pyridin-3-yl]oxy}-3,4-dihydroisoquinolin-1(2H)-one]	500 to 2000
CCCCN1Cc2cc(Nc3cncc(N4CCOCC4)c3)ccc2C1=O [Example 8, 2-butyl-5-{[5-(morpholin-4-yl)pyridin-3-yl]amino}-2,3-dihydro-1H-isoindol-1-one]	< 500
CCCCN1Cc2c(Oc3cncc(-c4ccccc4)c3)cccc2C1=O [Example 12, 2-butyl-4-[(5-phenylpyridin-3-yl)oxy]-2,3-dihydro-1H-isoindol-1-one trifluoroacetate]	< 500
CCCCN1CCc2c(Oc3cc(N4CCNCC4)cnc3Cl)cccc2C1=O [Example 21, 2-butyl-5-{[2-chloro-5-(piperazin-1-yl)pyridin-3-yl]oxy}-3,4-dihydroisoquinolin-1(2H)-one]	500 to 2000
CCCCN1Cc2cc(Nc3cnc4ccccc4n3)ccc2C1=O [Example 18, 2-butyl-5-(quinoxalin-2-ylamino)-2,3-dihydro-1H-isoindol-1-one]	2000 to 10000
CCCCN1Cc2ccc(Oc3cncc(-c4ccccc4)c3)cc2C1=O [Example 15, 2-butyl-6-[(5-phenylpyridin-3-yl)oxy]-2,3-dihydro-1H-isoindol-1-one trifluoroacetate]	500 to 2000
COCCN1Cc2cc(Nc3cncc(-c4ccccc4)c3)ccc2C1=O [Example 19, 2-(2-methoxyethyl)-5-[(5-phenylpyridin-3-yl)amino]-2,3-dihydro-1H-isoindol-1-one]	500 to 2000

Continued, values first:

EC50 [nM]	SMILES
2000 to 10000	CCCCN1Cc2cc(Nc3cccnc3Cl)ccc2C1=O [Example 20, 2-butyl-5-[(2-chloropyridin-3-yl)amino]-2,3-dihydro-1H-isoindol-1-one]
500 to 2000	CCCCN1Cc2cc(Nc3cncc(-c4ccccc4)c3)cc(Cl)c2C1=O [Example 4, 2-butyl-7-chloro-5-[(5-phenylpyridin-3-yl)amino]-2,3-dihydro-1H-isoindol-1-one]
2000 to 10000	CCCCN1Cc2cc(Nc3cncc(N4CCN(C)CC4)c3)ccc2C1=O [Example 10, 2-butyl-5-{[5-(4-methylpiperazin-1-yl)pyridin-3-yl]amino}-2,3-dihydro-1H-isoindol-1-one]
500 to 2000	CCCCN1Cc2cc(Nc3cncc(Cl)c3)ccc2C1=O [Example 7, 2-butyl-5-[(5-chloropyridin-3-yl)amino]-2,3-dihydro-1H-isoindol-1-one]
< 500	CCCCN1Cc2cc(Nc3cncc(-c4ccccc4)n3)ccc2C1=O [Example 16, 2-butyl-5-(6-phenyl-pyrazin-2-ylamino)-2,3-dihydro-isoindol-1-one]
500 to 2000	CCCCN1Cc2cc(-c3cncc(-c4ccccc4)c3)ccc2C1=O [Example 24, 2-butyl-5-(5-phenylpyridin-3-yl)-2,3-dihydro-1H-isoindol-1-one]
2000 to 10000	CCCCN1Cc2cc(Nc3cncc(N4CCNCC4)c3)ccc2C1=O [Example 5, 2-butyl-5-{[5-(piperazin-1-yl)pyridin-3-yl]amino}-2,3-dihydro-1H-isoindol-1-one]
500 to 2000	CCCCN1Cc2cc(Nc3cnc4ccccc4c3)ccc2C1=O [Example 17, 2-butyl-5-(quinolin-3-ylamino)-2,3-dihydro-1H-isoindol-1-one]
< 500	CCCCN1CCc2cc(Oc3cncc(-c4ccccc4)c3)ccc2C1=O [Example 14, 2-butyl-6-[(5-phenylpyridin-3-yl)oxy]-3,4-dihydroisoquinolin-1(2H)-one trifluoroacetate]
< 500	CCCCN1Cc2cc(Oc3cncc(-c4ccccc4)c3)ccc2C1=O [Example 11, 2-butyl-5-[(5-phenylpyridin-3-yl)oxy]-2,3-dihydro-1H-isoindol-1-one]
500 to 2000	CCCCN1Cc2cc(Nc3cc(N4CCN(C)CC4)cnc3Cl)ccc2C1=O [Example 9, 2-butyl-5-{[2-chloro-5-(4-methylpiperazin-1-yl)pyridin-3-yl]amino}-2,3-dihydro-1H-isoindol-1-one]
